What was measured:
[1] = system: murine AHR^d; experiment: EROD activity in AHR^d-15 cells (rat hepatoma BP8 stably transfected with AHR^d); details: 5L versus AHR^d-15 cells, 40 hours
Text: (§1) The 100 “hit compounds” from the primary screen were subsequently screened for their capacity to activate the low-affinity murine AHR^d receptor isoform using the activity of the endogenous Cyp1a1 gene as a readout. To this end, we established a hepatoma cell line that expresses the AHR^d receptor isoform derived from the DBA/2J mouse. An AHR^d-expressing cell line was generated by stably transfecting the AHR^d cDNA into the rat hepatoma AHR-deficient cell line, BP8 [15]. After stable selection with G418, a subclone (AHR^d-15) was analyzed for receptor expression and function. […] To confirm that the AHR^d-15 clone expressed a functional low affinity AHR^d isoform, we examined the receptor-mediated response to the prototype agonists, TCDD and β-naphthoflavone (BNF).
(§2) To test the ability of the 100 AHR inducers to activate the AHR^d-15 cells, they were treated with each of the compounds at the dose of 1 µM, for 36 hours in 96-well plates.
(§3) Figure 3 In Vitro dose response curves. A. Rat hepatoma cell lines bearing the murine AHR^d (AHR^d-15) or the rat AHR^b (5L) were incubated with increasing doses of TCDD in 96-well plates. After 40 hours, EROD activity was performed from whole cell lysate. (n = 3). […] (n = 3). C. Same assay as in A, with increasing doses of BNF. (n = 2). […] Following 48 hours, hepatic microsomal proteins were isolated and used for the assessment of EROD activity. Animals were treated in groups of 4. Error bars: S.D.
(§4) The open reading frame of the AHR^d gene (PL2047) was amplified by PCR using oligos OL5127 (5′-[…]-3′) and OL5128 (5′-[…]-3′). The product was ligated into the pTARGET™ mammalian expression vector (Promega, Madison, WI). The resulting plasmid was transfected into the AHR-deficient cell line, BP8 [15], using Effectene transfection reagent (Qiagen Inc., Valencia, CA). Stable integrants were selected with 6 mg/ml of G418 for 2 weeks, beginning at 48-hours post-transfection. Clones derived from single cells were screened for their response to nanomolar doses of dioxin or micromolar doses of BNF, as measured by ethoxyresorufin O-deethylase (EROD) activity. […] The validated cell line used in these studies was designated line AHR^d-15.
(§5) High-throughput analysis of EROD activity was assayed by adapting a protocol that was described elsewhere, [63]. Briefly, cells were seeded into 96-well plates at ∼ 60% density and treated with the test compounds for 36 hours. The cells were washed with PBS and lysed with 30 µL water and a cycle of freeze-thaw. To each well, 150 µL of 50 mM Hepes buffer containing 26.7 µM dicumarol and 13.3 µM ethoxyresorufin were added. The samples were incubated at 30°C for 20 minutes, and 50 µL of 0.5 mM β-NADPH were added to initiate the reaction. Fluorescence of the resorufin product was detected using the 544 nm excitation and 590 nm emission wavelength filter set.

[2] = molecular target: T1, murine AHR^d (Mus musculus, UniProt P30561, A375V); experiment: as above
T1 sequence (P30561 10-848 A375V): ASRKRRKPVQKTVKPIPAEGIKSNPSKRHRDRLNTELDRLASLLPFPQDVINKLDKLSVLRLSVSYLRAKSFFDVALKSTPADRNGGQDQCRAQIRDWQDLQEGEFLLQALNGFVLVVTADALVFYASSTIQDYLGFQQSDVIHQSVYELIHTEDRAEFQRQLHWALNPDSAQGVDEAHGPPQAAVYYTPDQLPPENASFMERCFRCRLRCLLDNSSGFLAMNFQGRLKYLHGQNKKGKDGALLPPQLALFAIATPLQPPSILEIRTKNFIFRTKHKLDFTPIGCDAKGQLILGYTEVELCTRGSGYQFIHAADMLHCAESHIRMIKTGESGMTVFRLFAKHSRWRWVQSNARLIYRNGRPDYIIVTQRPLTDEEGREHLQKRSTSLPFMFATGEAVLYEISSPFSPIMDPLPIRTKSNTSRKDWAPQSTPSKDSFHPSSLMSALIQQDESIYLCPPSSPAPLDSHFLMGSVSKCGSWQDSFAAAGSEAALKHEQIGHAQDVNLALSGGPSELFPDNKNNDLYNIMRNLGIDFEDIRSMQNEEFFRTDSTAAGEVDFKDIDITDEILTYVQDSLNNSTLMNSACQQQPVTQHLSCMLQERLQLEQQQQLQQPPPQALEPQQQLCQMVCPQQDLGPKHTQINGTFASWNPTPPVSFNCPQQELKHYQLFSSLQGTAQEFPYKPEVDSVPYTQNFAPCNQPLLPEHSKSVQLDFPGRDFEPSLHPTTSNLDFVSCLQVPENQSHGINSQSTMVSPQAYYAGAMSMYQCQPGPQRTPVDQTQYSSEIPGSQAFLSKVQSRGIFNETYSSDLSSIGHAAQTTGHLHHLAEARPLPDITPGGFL
Text: as §1, §2, §3, §4, §5

[3] = molecular target: wild-type AHR (pTarget-mAHR) (Mus musculus, UniProt P30561); experiment: DRE-luciferase in COS-1 cells transfected with wild-type mAHR
Protocol: Figure 4 Splenocytes from wild-type and AHR^d mice analyzed by qPCR for CYP1A1. […] After 4 hours they were analyzed by qPCR for CYP1A1 analysis. The curves are normalized from 0 to 100% response. […] Cos-1 cells were transfected with an AHR containing the same point mutation (valine for alanine) thought to be responsible for the low affinity of the AHR^d isoform compared to AHR^b, and compared to the wild-type AHR response. These cells also harbor a luciferase gene next to the DRE. C. Cos-1 cells were exposed to TCDD. […] The graphs represent normalized data from 0 response to 100% response. They are representative of 2 independent experiments.
These cells also harbor a luciferase gene next to the DRE. […] The data in this figure is normalized from 0 to 100% response.
After 4 hours of treatment, cells were assayed with dual luciferase® reporter assay system (Promega, Madison, WI). The expressed luciferase activity was measured by MicroLumat Plus luminometer (Berthold Technologies, Hartfordshire, UK).

wild-type AHR (pTarget-mAHR), sequence (P30561 10-848): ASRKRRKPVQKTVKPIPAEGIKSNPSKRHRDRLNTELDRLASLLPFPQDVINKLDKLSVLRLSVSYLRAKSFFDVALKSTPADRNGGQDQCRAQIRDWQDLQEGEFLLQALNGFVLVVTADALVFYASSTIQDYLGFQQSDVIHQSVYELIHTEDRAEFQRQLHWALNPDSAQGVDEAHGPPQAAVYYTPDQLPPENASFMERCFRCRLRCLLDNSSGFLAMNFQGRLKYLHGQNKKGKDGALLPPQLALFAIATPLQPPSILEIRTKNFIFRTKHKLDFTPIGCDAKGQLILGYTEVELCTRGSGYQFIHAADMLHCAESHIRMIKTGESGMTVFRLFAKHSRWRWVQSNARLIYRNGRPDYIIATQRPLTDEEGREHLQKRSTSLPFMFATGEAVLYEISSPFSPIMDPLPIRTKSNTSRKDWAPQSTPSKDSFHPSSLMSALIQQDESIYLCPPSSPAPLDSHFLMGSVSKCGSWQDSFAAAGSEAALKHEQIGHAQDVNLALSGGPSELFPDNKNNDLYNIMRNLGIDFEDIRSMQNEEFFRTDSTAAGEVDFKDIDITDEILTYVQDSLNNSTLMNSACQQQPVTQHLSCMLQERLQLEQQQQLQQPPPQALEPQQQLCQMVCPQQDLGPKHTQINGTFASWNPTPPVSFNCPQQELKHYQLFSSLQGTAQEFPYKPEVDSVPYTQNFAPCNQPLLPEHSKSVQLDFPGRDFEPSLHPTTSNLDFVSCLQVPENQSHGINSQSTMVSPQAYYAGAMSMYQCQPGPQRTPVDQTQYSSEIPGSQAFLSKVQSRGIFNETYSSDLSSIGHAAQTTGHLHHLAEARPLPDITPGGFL

Structure (SMILES) | cytochrome P450 induction (EROD), comparison of the two cell lines [1] | EC50 [2] [nM] | induction of AHR^d-mediated EROD activity ([2]; AHR^d-15 cells, positive control 2 nM, 36 hours) | EC50 [3] [nM]
Cc1cc(C)c(C=C2C(=O)Nc3ccccc32)[nH]1 [SU5416, 3-(3,5-dimethyl-1H-pyrrol-2-ylmethylene)-1,3-dihydro-indole-2-one] | equal potency |  |  | 
Clc1cc2c(cc1Cl)Oc1cc(Cl)c(Cl)cc1O2 [TCDD, 2,3,7,8-tetrachlorodibenzo-p-dioxin] |  | ~30 | greater than 5 fold | 0.73
